Data published in patent US20220031684A1, “PROPHYLACTIC EFFICACY OF SEROTONIN 4 RECEPTOR AGONISTS AGAINST STRESS” (THE TRUSTEES OF COLUMBIA UNIVERSITY IN THE CITY OF NEW YORK, priority 2019, published 2022).

What was measured:
[1] = tested on: CA3 pyramidal cells; assay: Whole-cell voltage clamp recordings of spontaneous EPSCs in CA3 slices; assay type: cell-based, mice; conditions: NBQX 20 μM added to bath
Experimental: This chronic CORT elevation dysregulates the hypothalamic-pituitary-adrenal axis (HPA) in a manner similar to that observed in clinical depression. The dose and duration of CORT treatment was selected based on previous studies. CORT (35 μg/ml, equivalent to about 5 mg/kg/day) dissolved in 0.45% hydroxypropyl-o-cyclodextrin (0-CD) or vehicle (VEH) (0.45% j-CD) was available ad libitum in the drinking water in opaque bottles to protect it from light. VEH- and CORT-treated water was changed every 3 days to prevent possible degradation. Contextual Fear Conditioning (CFC): A 3-shock CFC procedure was administered as previously published. Briefly, mice were placed into context A and administered 3 2-s shocks (0.75 mA) at 180 s, 240 s or 300 s following placement into context A. Mice were removed from the context 15 s following the termination of shock (at 317 s). For context retrieval, mice were placed back into context A for 300 s. Electrophysiology: Electrophysiology was conducted as previously described. Statistical Analysis: Results from data analyses are expressed as means±SEM. Alpha was set to 0.05 for all analyses. Data were analyzed using GraphPad Prism v7.0 or v8.0. For all experiments, unless otherwise noted, one- or two-way ANOVAs with repeated-measures were applied to the data as appropriate. Significant main effects and/or interactions were followed by Fisher's PLSD post hoc analysis or unpaired t-tests. Drugs: All drugs were prepared in physiological saline and all injections were administered intraperitoneally (i.p.) in volumes of 0.1 cc per […] body weight unless otherwise noted. Fluoxetine hydrochloride (Flx): Flx (BioTrend Chemicals AG, BG197, Zurich, Germany) was administered in the drinking water (18 mg/kg/day) for 3 weeks before the start of CORT. […] (R,S)-ketamine (K): (R,S)-ketamine (Ketaset III, Ketamine HCl injection, Fort Dodge Animal Health, Fort Dodge, Iowa) was administered in a single dose at 30 mg/kg of body weight 1 week before the start of CFC. […] PF-04995274: PF-04995274 (Sigma, Catalog No. 1331782-27-4, St. Louis, Mo.) was administered a single dose at 3 or 10 mg/kg of body weight 1 week before the start of CFC. PF-04995274 was dissolved in saline using an ultrasonic homogenizer (BioLogics, Model 3000, Manassas, Va.). Osmotic minipump implantation: ALZET osmotic minipumps (Model 2004, […], 28 days) were implanted subcutaneously under isoflurane anesthesia as previously described [S2]. Osmotic minipumps were rotated under the skin two to three times per week. Behavioral Assays: All experiments were approved by the Institutional Animal Care and Use Committee (IACUC) at the New York Psychiatric Institute (NYSPI). Elevated Plus Maze (EPM): Testing was performed as previously described [S3]. Briefly, the maze is a plus-cross-shaped apparatus consisting of four arms, two open and two enclosed by walls, linked by a central platform at a height of 50 cm from the floor. Mice were individually placed in the center of the maze facing an open arm and were allowed to explore the maze for 5 min. The time spent in and the number of entries into the open arms was used as an anxiety index. Videos were scored using ANY-maze behavior tracking software (Stoelting, Wood Dale, Ill.). Novelty-Suppressed Feeding: The NSF is a conflict test that elicits competing motivations: the drive to eat and the fear of venturing into the center of a brightly lit arena. The latency to feed is used as an index of anxiety-like behavior, because classical anxiolytic drugs decrease this measure. The NSF test was carried out during an 8 min period as previously described [S3]. Briefly, the testing apparatus consisted of a plastic box (50×50×20 cm), the floor of which was covered with approximately 2 cm of bedding. For 129S6/SvEv experiments, mice were food restricted for 12 h. For the C57BL/6N experiments, mice were food restricted for 24 h. […]

[2] = tested on: BALB/cJRj mice; assay: Elevated plus maze (EPM), acute anxiolytic-like effect; assay type: in vivo; conditions: GR125487 1 mg/kg i.p. 15 min before RS67333 1.5 mg/kg i.p.
Experimental: (§1) RS67333 (1.5 mg/kg, i.p.), diazepam (1.5 mg/kg, i.p.), fluoxetine (18 mg/kg, i.p.) were injected 45 min before testing in the Elevated Plus Maze (EPM), the Novelty Suppressed Feeding (NSF) or the Open Field (OF) in three independent cohorts of male BALB/cJRj mice.
(§2) To ensure the selectivity of the anxiolytic-like effects of RS67333, in a new cohort of male BALB/cJRj mice, GR125487 (1.0 mg/kg, i.p.) dissolved in 0.9% NaCl solution, was injected 15 minutes before RS67333 administration (1.5 mg/kg, i.p.). EPM or NSF occurred 45 min after RS67333 administration (A-S1). Behavioral consequences of the co-administration of GR125487+RS67333 were compared to RS67333 alone, diazepam (1.5 mg/kg, i.p.) fluoxetine (18 mg/kg, i.p.) and vehicle groups (0.9% saline solution, i.p.).
(§3) For mPFC drug infusion, two bilateral cannulae (75 μm-diameter silica capillary tubing inserted in 27G stainless steel catheter) were implanted in the mPFC [stereotaxic coordinates in mm from bregma: A=+2.10, L=±0.50, V=−2.60, A, anterior; L, lateral; and V, ventral, according to (A-S10)] under anesthesia (chloral hydrate, 400 mg/kg, i.p.). […] Diazepam (1.5 mg/kg) was used as a positive control.
In a new cohort of male BALB/cJRj mice, p-CPA was administered twice daily (at 0900 and 1700 h) for 3 consecutive days. RS67333 ([…]) and diazepam ([…]) were then intra-mPFC administered 24 h after the final p-CPA administration and behavioral test (EPM) occurred 45 minutes after local infusion.
The EPM is a widely used behavioral assay for rodents and it has been validated to assess the anti-anxiety effects of pharmacological agents (A-S11). This test was performed as described by (A-S1). The maze is a plus-cross-shaped apparatus, with two open arms and two arms closed by walls linked by a central platform 50 cm above the floor. Mice were individually put in the center of the maze facing an open arm and were allowed to explore the maze during 5 min for the behavioral consequences of an acute systemic administration or mPFC infusion and during 6 min for the optogenetic experiments. The time spent in and the numbers of entries into the open arms were used as an anxiety index. All parameters were measured using a videotracker (EPM3C, Bioseb, Vitrolles, France).

[3] = tested on: BALB/cJRj mice; assay: Novelty suppressed feeding (NSF), acute anxiolytic-like effect; assay type: in vivo; conditions: GR125487 1 mg/kg i.p. 15 min before RS67333 1.5 mg/kg i.p.
Experimental: as §1, §2, §3
The NSF is a conflict test that elicits competing motivations: the drive to eat and the fear of venturing into the center of a brightly lit arena. The latency to begin eating is used as an index of anxiety/depression-like behavior, because classical anxiolytic drugs as well as chronic antidepressants decrease this measure. The NSF test was carried out during a 10 min period as previously described (A-S12). Briefly, the testing apparatus consisted of a plastic box (50×50×20 cm), the floor of which was covered with approximately 2 cm of wooden bedding. Twenty-four hours prior to behavioral testing, all food was removed from the home cage. At the time of testing, a single pellet of food (regular chow) was placed on a white paper platform positioned in the center of the box. Each animal was placed in a corner of the box, and a stopwatch was immediately started. The latency to eat (defined as the mouse sitting on its haunches and biting the pellet with the use of forepaws) was timed. Immediately afterwards, the animal was transferred to its home cage, and the amount of food consumed by the mouse in the subsequent 5 min was measured, serving as a control for change in appetite as a possible confounding factor.

NS(=O)(=O)c1cccc2c1c([N+](=O)[O-])cc1nc(O)c(O)nc12 [NBQX, 2,3-dihydroxy-6-nitro-7-sulfamoyl-benzo[f]quinoxaline]
large bursts of EPSCs in saline-treated mice [1]: completely blocked

COc1[nH]c2ccc(F)cc2c1C(=O)OCC1CCN(CCNS(C)(=O)=O)CC1.NS(=O)(=O)O [GR125487, 5-Fluoro-2-methoxy-[1-[2-[(methylsulfonyl)amino]ethyl]-4-piperidinyl]-1H-indole-3-methylcarboxylate sulfamate]
RS67333-induced increase in time and percent time spent in the open arms (EPM) [2]: prevented
RS67333-induced increase of ambulatory distance in the open arms divided by total distance (EPM) [2]: prevented
effect of RS67333 on the latency to feed (NSF) [3]: occluded
